From patent publication US9446039B2, “Aminoheteroaryl compounds as MTH1 inhibitors” (CEMM—FORSCHUNGSZENTRUM FÜR MOLEKULARE MEDIZIN GMBH, priority 2012, dated 2016)

Legend:
Assay type in all cases: binding
[1] = target: T1, SW480 colon carcinoma cells lysate proteins (Homo sapiens, UniProt P22234); conditions: PreyGene PAICS
T1 sequence (P22234 1-425): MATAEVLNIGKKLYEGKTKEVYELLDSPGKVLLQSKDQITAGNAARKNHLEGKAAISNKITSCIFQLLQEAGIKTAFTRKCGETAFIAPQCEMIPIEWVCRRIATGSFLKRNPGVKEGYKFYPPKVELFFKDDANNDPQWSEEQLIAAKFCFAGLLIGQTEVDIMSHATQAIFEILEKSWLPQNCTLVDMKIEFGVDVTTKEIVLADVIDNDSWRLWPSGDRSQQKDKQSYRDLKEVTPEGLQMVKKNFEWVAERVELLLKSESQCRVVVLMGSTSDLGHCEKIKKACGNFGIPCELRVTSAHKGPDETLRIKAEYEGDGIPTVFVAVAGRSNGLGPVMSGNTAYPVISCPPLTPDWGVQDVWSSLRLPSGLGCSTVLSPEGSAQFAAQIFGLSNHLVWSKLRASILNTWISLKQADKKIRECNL

[2] = target: T2, SW480 colon carcinoma cells lysate proteins (Homo sapiens, UniProt P30101); conditions: PreyGene PDIA3
T2 sequence (P30101 25-505): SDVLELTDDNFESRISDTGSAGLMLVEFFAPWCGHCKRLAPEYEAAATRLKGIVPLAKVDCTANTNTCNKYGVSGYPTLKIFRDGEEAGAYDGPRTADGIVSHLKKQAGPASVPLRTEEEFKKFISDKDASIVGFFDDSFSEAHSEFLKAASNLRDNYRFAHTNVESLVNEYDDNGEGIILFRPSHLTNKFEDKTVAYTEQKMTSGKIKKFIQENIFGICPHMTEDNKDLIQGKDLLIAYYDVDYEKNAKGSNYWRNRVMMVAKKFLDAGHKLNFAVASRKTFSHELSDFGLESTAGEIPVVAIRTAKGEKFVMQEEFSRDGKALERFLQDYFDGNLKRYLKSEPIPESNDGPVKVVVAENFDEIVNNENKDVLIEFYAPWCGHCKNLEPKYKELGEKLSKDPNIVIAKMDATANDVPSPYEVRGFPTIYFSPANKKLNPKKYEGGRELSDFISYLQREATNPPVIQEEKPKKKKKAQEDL

[3] = target: T3, SW480 colon carcinoma cells lysate proteins (Homo sapiens, UniProt Q07021); conditions: PreyGene C1QBP
T3 sequence (Q07021 74-282): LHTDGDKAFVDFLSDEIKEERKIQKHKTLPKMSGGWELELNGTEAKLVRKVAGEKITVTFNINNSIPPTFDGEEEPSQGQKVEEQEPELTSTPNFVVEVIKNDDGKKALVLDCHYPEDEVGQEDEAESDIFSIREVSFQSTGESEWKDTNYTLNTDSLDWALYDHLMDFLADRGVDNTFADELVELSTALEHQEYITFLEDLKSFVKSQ

[4] = target: SW480 colon carcinoma cells lysate proteins (Homo sapiens, UniProt P06733); conditions: PreyGene ENO1
Sequence of SW480 colon carcinoma cells lysate proteins (Homo sapiens, UniProt P06733) (P06733 whole entry): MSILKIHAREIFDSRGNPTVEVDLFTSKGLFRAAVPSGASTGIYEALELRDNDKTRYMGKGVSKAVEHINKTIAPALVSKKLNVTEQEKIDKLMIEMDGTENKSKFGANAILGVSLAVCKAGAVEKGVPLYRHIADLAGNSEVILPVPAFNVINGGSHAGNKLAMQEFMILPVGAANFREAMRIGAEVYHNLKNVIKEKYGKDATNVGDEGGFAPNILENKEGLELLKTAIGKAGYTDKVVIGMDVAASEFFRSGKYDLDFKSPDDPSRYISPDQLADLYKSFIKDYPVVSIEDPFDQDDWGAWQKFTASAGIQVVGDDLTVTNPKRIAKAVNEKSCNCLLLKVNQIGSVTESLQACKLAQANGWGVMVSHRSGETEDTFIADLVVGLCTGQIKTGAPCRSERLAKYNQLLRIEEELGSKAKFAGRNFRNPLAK

[5] = target: SW480 colon carcinoma cells lysate proteins (Homo sapiens, UniProt Q14974); conditions: PreyGene KPNB1
Sequence of SW480 colon carcinoma cells lysate proteins (Homo sapiens, UniProt Q14974) (Q14974 whole entry): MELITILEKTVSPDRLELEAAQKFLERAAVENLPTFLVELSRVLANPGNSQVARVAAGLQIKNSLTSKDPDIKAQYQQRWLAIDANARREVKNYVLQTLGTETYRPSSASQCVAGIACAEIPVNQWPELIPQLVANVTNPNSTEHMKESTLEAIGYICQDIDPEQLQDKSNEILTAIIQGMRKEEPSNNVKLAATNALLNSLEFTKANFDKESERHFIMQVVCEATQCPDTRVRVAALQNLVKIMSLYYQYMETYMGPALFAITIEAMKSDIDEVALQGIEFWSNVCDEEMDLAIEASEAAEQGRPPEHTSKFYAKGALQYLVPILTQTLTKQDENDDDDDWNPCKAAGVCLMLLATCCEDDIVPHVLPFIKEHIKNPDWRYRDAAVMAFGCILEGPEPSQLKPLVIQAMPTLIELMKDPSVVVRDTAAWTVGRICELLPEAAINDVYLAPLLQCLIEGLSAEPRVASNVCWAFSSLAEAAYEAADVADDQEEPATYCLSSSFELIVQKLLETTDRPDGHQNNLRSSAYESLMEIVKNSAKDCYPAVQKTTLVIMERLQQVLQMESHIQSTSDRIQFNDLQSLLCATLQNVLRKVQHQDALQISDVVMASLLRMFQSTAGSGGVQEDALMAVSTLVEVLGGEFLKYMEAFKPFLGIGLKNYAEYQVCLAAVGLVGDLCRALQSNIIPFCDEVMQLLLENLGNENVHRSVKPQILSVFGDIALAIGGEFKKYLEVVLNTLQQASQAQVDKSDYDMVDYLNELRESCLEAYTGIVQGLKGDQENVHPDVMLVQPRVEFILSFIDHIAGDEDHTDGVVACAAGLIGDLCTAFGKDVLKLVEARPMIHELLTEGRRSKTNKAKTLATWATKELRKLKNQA

[6] = target: T4, SW480 colon carcinoma cells lysate proteins (Homo sapiens, UniProt Q15084); conditions: PreyGene PDIA6
T4 sequence (Q15084 20-440): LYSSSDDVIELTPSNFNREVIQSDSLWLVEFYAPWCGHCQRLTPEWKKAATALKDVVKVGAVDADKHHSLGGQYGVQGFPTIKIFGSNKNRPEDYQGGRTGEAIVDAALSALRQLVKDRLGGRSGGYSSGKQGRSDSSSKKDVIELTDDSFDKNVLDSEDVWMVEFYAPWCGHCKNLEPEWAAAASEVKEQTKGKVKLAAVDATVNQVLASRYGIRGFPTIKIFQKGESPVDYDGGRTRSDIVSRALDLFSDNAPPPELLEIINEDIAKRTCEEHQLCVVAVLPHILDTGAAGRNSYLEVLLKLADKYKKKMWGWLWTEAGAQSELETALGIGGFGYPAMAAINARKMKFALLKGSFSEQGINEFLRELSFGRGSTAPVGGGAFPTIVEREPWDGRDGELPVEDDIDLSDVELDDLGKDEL

[7] = target: SW480 colon carcinoma cells lysate proteins (Homo sapiens, UniProt Q9Y490); conditions: PreyGene TLN1
Sequence of SW480 colon carcinoma cells lysate proteins (Homo sapiens, UniProt Q9Y490) (Q9Y490 whole entry): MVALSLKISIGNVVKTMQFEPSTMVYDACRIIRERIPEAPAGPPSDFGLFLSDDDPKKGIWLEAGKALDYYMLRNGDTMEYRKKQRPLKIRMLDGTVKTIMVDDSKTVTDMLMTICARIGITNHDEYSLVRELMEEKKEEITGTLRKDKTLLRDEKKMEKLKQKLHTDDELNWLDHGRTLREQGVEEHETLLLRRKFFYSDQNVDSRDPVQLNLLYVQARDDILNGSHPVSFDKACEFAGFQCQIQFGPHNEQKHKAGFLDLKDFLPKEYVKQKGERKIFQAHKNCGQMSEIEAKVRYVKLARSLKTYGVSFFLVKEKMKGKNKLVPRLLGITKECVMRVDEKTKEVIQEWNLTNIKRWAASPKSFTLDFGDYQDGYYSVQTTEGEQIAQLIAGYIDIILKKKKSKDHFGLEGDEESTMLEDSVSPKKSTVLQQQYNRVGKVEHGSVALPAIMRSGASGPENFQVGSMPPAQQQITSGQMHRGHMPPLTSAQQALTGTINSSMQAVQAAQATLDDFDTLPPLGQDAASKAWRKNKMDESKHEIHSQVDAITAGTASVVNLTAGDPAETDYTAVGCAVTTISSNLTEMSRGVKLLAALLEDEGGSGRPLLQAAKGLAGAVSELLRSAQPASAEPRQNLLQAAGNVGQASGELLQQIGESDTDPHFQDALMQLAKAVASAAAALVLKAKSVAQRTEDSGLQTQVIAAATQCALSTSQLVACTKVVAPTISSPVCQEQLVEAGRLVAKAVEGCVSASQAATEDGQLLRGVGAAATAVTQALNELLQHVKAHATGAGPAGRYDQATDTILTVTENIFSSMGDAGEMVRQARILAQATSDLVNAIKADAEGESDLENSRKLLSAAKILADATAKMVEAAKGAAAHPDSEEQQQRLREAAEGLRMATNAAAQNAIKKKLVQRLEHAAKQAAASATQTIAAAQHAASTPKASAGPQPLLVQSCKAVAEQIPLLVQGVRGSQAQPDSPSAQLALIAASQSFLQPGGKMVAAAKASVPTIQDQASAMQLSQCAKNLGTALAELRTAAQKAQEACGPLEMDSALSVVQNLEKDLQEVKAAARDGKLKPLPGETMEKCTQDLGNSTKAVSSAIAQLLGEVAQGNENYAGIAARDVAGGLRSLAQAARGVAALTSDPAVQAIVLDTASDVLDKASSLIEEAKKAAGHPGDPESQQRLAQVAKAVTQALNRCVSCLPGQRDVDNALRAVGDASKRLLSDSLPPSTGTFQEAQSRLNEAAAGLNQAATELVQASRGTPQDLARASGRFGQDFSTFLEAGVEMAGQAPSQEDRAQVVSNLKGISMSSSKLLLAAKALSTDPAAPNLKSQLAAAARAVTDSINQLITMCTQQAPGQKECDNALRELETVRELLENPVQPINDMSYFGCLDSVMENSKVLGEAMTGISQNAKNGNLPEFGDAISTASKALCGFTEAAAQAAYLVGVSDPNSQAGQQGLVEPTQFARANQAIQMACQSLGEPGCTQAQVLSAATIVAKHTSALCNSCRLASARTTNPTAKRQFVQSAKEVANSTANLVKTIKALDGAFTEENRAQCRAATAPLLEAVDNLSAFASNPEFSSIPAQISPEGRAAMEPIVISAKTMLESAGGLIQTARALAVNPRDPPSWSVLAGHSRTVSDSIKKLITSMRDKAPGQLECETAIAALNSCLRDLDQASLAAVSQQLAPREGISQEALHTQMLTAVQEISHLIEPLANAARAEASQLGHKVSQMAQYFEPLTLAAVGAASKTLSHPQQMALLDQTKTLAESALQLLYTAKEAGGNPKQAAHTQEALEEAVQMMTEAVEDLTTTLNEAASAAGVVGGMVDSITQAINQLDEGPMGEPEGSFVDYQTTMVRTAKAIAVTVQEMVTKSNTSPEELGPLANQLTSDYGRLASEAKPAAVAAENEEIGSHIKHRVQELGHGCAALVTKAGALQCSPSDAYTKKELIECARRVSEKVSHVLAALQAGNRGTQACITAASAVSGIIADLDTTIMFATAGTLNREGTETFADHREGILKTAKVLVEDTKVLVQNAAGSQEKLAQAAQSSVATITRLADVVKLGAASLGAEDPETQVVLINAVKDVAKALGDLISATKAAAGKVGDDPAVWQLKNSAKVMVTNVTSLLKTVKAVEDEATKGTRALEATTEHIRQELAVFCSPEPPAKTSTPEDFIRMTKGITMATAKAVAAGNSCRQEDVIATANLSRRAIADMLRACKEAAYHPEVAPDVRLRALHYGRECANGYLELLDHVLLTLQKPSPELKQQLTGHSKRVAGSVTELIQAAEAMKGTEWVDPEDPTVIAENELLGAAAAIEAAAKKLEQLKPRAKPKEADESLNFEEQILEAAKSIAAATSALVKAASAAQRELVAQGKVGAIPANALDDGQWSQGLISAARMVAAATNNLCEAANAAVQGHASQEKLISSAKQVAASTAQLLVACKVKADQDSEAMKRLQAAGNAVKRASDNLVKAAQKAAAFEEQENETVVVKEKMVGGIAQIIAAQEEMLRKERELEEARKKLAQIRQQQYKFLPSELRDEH

Question: `C[C@H](Oc1cc(-c2cnn(C3CCNCC3)c2)cnc1N)c1c(Cl)ccc(F)c1Cl` [(5)-crizotinib] was tested. Which AvgP [1] did it give?
Answer: The AvgP was 0.4488.

Question: What about the “SC.Exp. 1-1” value [1] of the same compound?
Answer: Its value is 7.

Question: What about the “SC.Exp. 1-2” value [1] of the same compound?
Answer: The value was 5.

Question: What about the “SC.Exp. 2-1” value [1] of the same compound?
Answer: Its value is 0.

Question: What about the “SC.Exp. 2-2” value [1] of the same compound?
Answer: Its value is 0.

Question: What about the “Sum (SC.Exp.)” value [1] of the same compound?
Answer: Its value is 12.

Question: And the AvgP [2]?
Answer: The AvgP was 0.4952.

Question: And the “SC.Exp. 1-1” value [2]?
Answer: The value was 8.

Question: What about the “SC.Exp. 1-2” value [2] of the same compound?
Answer: The value was 7.

Question: What about the “SC.Exp. 2-1” value [2] of the same compound?
Answer: The value was 0.

Question: What about the “SC.Exp. 2-2” value [2] of the same compound?
Answer: Its value is 0.

Question: What about the “Sum (SC.Exp.)” value [2] of the same compound?
Answer: The value was 15.

Question: What about the AvgP [3] of the same compound?
Answer: The AvgP was 0.33.

Question: And the “SC.Exp. 1-1” value [3]?
Answer: Its value is 3.

Question: What about the “SC.Exp. 1-2” value [3] of the same compound?
Answer: The value was 3.

Question: What about the “SC.Exp. 2-1” value [3] of the same compound?
Answer: The value was 0.

Question: What about the “SC.Exp. 2-2” value [3] of the same compound?
Answer: Its value is 0.

Question: What about the “Sum (SC.Exp.)” value [3] of the same compound?
Answer: Its value is 6.

Question: And the AvgP [4]?
Answer: Its AvgP is 0.2209.

Question: And the “SC.Exp. 1-1” value [4]?
Answer: Its value is 29.

Question: And the “SC.Exp. 1-2” value [4]?
Answer: Its value is 28.

Question: And the “SC.Exp. 2-1” value [4]?
Answer: The value was 7.

Question: What about the “SC.Exp. 2-2” value [4] of the same compound?
Answer: The value was 7.

Question: And the “Sum (SC.Exp.)” value [4]?
Answer: Its value is 71.

Question: What about the AvgP [5] of the same compound?
Answer: Its AvgP is 0.5773.

Question: And the “SC.Exp. 1-1” value [5]?
Answer: The value was 7.

Question: And the “SC.Exp. 1-2” value [5]?
Answer: The value was 6.

Question: And the “SC.Exp. 2-1” value [5]?
Answer: Its value is 1.

Question: And the “SC.Exp. 2-2” value [5]?
Answer: Its value is 0.

Question: And the “Sum (SC.Exp.)” value [5]?
Answer: Its value is 14.

Question: What about the AvgP [6] of the same compound?
Answer: Its AvgP is 0.4427.

Question: And the “SC.Exp. 1-1” value [6]?
Answer: Its value is 3.

Question: What about the “SC.Exp. 1-2” value [6] of the same compound?
Answer: The value was 4.

Question: And the “SC.Exp. 2-1” value [6]?
Answer: The value was 0.

Question: What about the “SC.Exp. 2-2” value [6] of the same compound?
Answer: The value was 0.

Question: What about the “Sum (SC.Exp.)” value [6] of the same compound?
Answer: Its value is 7.

Question: What about the AvgP [7] of the same compound?
Answer: The AvgP was 0.4939.

Question: What about the “SC.Exp. 1-1” value [7] of the same compound?
Answer: The value was 7.

Question: And the “SC.Exp. 1-2” value [7]?
Answer: Its value is 7.

Question: What about the “SC.Exp. 2-1” value [7] of the same compound?
Answer: Its value is 0.

Question: And the “SC.Exp. 2-2” value [7]?
Answer: Its value is 0.

Question: And the “Sum (SC.Exp.)” value [7]?
Answer: Its value is 14.
